Test [1] has as its target T1, AlkB-Fe^++ (E. coli AlkB demethylase) (Escherichia coli, UniProt P05050).
T1 construct: made in house; host or cells: E. cloni EXPRESS BL21(DE3) E. coli
T1 sequence (P05050 with tags, fused parts or gaps): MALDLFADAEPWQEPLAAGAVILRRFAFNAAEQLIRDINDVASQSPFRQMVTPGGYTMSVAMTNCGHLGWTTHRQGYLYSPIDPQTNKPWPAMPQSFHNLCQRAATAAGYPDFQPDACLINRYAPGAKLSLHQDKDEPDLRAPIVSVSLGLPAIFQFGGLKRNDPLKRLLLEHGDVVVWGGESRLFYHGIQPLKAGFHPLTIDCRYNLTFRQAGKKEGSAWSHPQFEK
Kind of test: Ligand binding to AlkB-Fe++ confined inside ClyA-AS nanopore, single-channel ionic current recording. Here is the method:
The applied potential refers to the potential of the trans electrode. ClyA-AS nanopores were inserted into lipid bilayers from the cis compartment, which was connected to the ground electrode. The two compartments were separated by a 25 μm thick polytetrafluoroethylene film (Goodfellow Cambridge Limited) containing an orifice of ˜100 μm in diameter. The aperture was pretreated with ˜5 μl of 10% hexadecane in pentane and a bilayer was formed by the addition of ˜10 μL of 1,2-diphytanoyl-sn-glycero-3-phosphocholine (DPhPC) in pentane (10 mg/mL) to both electrophysiology chambers. Typically, the addition of 0.01-0.1 ng of oligomeric ClyA-AS to the cis compartment (0.5 mL) was sufficient to obtain a single channel. […] Electrical recordings were carried out in 150 mM NaCl, 15 mM Tris.HCl pH 8.0 (AlkB experiments) or 150 mM NaCl, 15 mM Tris.HCl pH 7.5 (DHFR experiments). The temperature of the recording chamber was maintained at 28° C. by water circulating through a metal case in direct contact with the bottom and sides of the chamber.
(§1) Electrical signals from planar bilayer recordings were amplified using an Axopatch 200B patch clamp amplifier (Axon Instruments) and digitized with a Digidata 1440 A/D converter (Axon Instruments). Data were recorded by using the Clampex 10.4 software (Molecular Devices) and the subsequent analysis was carried out with the Clampfit software (Molecular Devices). Electrical recordings were performed in 150 mM NaCl, 15 mM Tris.HCl pH 8.0 (AlkB) or pH 7.5 (DHFR) by applying a 2 kHz low-pass Bessel filter and a 10 kHz sampling rate. For further analysis traces were filtered digitally with a Bessel (8-pole) low-pass filter with a 50 Hz cut-off. Residual current values (IRES%) were calculated from blocked pore current values (IB) and open pore current values (IO) as IRES %=100*IB/IO. IB and IO were determined from Gaussian fits to all point current histograms (0.05 pA bin size) for at least 15 individual protein blockades. ΔIRES % values were calculated from IRES % using propagation of errors.
Current transitions from level 1 were analyzed with the “single-channel search” function in Clampfit. The detection threshold to collect the ligand-induced events for AlkB was set to 4 pA and events shorter than 10 ms were ignored. […] The resulting event dwell times (toff) and the time between events (ton) were binned together as cumulative distributions and fitted to a single exponential to retrieve the ligand-induced lifetimes (τoff) and the ligand-induced event frequencies (f=1/τon). The process of event collection was monitored manually. For AlkB, final values of τon and τoff were based on average values derived from at least 3 single channel experiments at each concentration. Each experiment analysed more than 8 AlkB blockades. At the low ligand concentrations (0.2 mM) about 100 ligand-binding events were measured. Otherwise more than 150 events were collected. […] Subsequently, the ton values were binned together as cumulative distributions and fitted to a single exponential fit to retrieve characteristic τon values. The values for koff represented in FIG. 2b and FIG. 4b were determined by taking the average±standard deviations of 1/toff of at least 3 single channel experiments. The values of the association rate constants (kon) were determined from the slope of the linear regression curves calculated from the dependency of the event frequencies (f=1/τon) on the ligand concentration (OriginLab, FIGS. 2b and 4b). Graphs were made with Origin (OriginLab Corporation) or Clampfit software (Molecular Devices).
9, 872-877; Bleijlevens, B. et al. (2012) Biochem. 2012, 51, 3334-3341].

Test [2] deals with SBD1 (Lactococcus lactis, UniProt Q9CES5). Description: Asparagine binding to SBD1 inside type I ClyA-AS nanopore. Here is the method: The interaction of SBD1 with asparagine was sampled using type I ClyA-AS nanopores. ClyA-AS (C87A/L99Q/E103G/F166Y/I203V/C285S/K294R/H307Y). In 150 mM NaCl and 15 mM Tris-HCl (pH 7.5), the addition of 74 nM of SBD1 to the cis compartment of Type I ClyA-AS induced transient current blockades at negative applied potentials (trans). […] Every 3.5±0.1 s^−1 (mean±S.E., n=212) the current switched to Level II (Ires %=66.8±0.4%, N=5) with a lifetime of 109±1 ms (mean±S.E., n=340). The protein blockades released spontaneously after 4.2±1.8 s (mean±S.E., n=291).
SBD1, sequence (Q9CES5 entry or part of it): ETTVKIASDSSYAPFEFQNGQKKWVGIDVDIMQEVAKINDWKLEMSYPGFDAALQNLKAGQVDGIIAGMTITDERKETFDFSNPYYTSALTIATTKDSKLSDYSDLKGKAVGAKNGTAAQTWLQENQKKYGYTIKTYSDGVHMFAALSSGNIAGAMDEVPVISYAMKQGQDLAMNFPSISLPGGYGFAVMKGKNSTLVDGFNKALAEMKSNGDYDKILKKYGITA
The dissociation constant was determined by titrating the substrate and plotting the relative closed population (CL/(O+CL)), determined from the area of the all point current histogram, versus the concentration. […] The closing and opening rate constants were determined from the inverse of the open and closed state lifetimes respectively and were plotted versus the asparagine concentration. The closing rate was linearly dependent on the substrate concentration and the slope of the linear fit gave the kclosing=1.2×10^7 s^−1 M^−1.

Test [3] addresses SBD2 (Lactococcus lactis, UniProt Q9CES5). Description: Glutamine binding to SBD2 inside type I ClyA-AS nanopore. Here is the method: The interaction of SBD2 with glutamine was sampled using type I ClyA-AS nanopores at −100 mV. The addition of 72 nM of SBD2 induced a current blockade that fluctuated between two levels I (Ires %=63.6±0.3%, τ=256±5 ms, N=3) and level III (Ires %=61.0±0.2%, τ=145±13 ms, N=3). Protein blockades remained inside the nanopore for 3.9±0.7 s (mean±S.E., n=225). Rarely the current visited an additional ionic current level, Level II (Ires %=62.5±0.3%, τ=18±1 ms, n=856, N=3).
We studied ligand binding by stepwise addition of glutamine at concentrations ranging from 200 nM to 3 μM. […] Binding rates were determined from the lifetimes as described above. Upon linear fitting of the binding rate curve the glutamine binding rates from Level I and III were determined. […] The opening rate constant was determined by the intercept at zero koff=39.7 s^1.

Test [4] deals with Type I ClyA-AS nanopore. Kind of test: Current blockades from capture of protein adaptors by Type I ClyA-AS nanopore. Also on record: species or system S. Typhi. To be noted: ~4 nM cis, −60 mV. Here is the method: The applied potential refers to the potential of the trans electrode. ClyA-AS nanopores were inserted into lipid bilayers from the cis compartment, which was connected to the ground electrode. The two compartments were separated by a 25 μm thick polytetrafluoroethylene film (Goodfellow Cambridge Limited) containing an orifice of ˜100 μm in diameter. The aperture was pretreated with ˜5 μl of 10% hexadecane in pentane and a bilayer was formed by the addition of ˜10 μL of 1,2-diphytanoyl-sn-glycero-3-phosphocholine (DPhPC) in pentane (10 mg/mL) to both electrophysiology chambers. […]
as §1, with “Electrical recordings were performed in 150 mM NaCl, 15 mM Tris.HCl pH 8.0 (AlkB) or pH 7.5 (DHFR) by applying a 2 kHz low-pass Bessel filter and a 10 kHz sampling rate. For further analysis traces were filtered digitally with a Bessel (8-pole) low-pass filter with a 50 Hz cut-off.” left out

Like-named read-outs stand apart in the source and are kept apart here.

SBD2, sequence (Q9CES5 entry or part of it): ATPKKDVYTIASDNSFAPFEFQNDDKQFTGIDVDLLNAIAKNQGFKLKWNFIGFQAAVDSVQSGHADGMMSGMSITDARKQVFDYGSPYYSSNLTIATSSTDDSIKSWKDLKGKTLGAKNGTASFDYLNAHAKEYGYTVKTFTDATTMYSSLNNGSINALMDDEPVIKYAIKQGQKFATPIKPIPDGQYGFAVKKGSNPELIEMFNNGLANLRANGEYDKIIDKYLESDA

As to `O=C(O)CCC(=O)O` [SUC, succinate], in test [1] (−60 mV, 150 mM NaCl, 15 mM Tris HCl pH 8.0, 28° C., ligand cis), the “L2B ΔIRES % (ligand-induced current enhancement from L2)” value was “+2.1 ± 1.0%”. For the same molecule, the “mean duration (toff) of ligand-induced events” value in test [1] (−60 mV, ligand cis) came out at 61 ± 11 ms. In addition, the “koff −60 mV” value in test [1] (−60 mV, pH 8.0, 28° C.) was determined as 16.6 ± 2.6 s⁻¹. Moreover, the “kon −60 mV” value in test [1] (−60 mV, pH 8.0, 28° C., slope of event frequency vs concentration) is 9.2 ± 1.3 × 10^2 s^−1 M^−1.
For orientation: Kd means the free concentration of one partner at which half of the binding sites on the other are occupied at equilibrium, for simple one-to-one binding. A high value points to weaker binding. On to `NC(=O)C[C@H](N)C(=O)O` [asparagine], for which, in test [2], binding was characterised by a dissociation constant (Kd) of 470 ± 30 nM. For the same molecule, the kon in test [2] (pH 7.5, read-out: kclosing) was 1.2e+07 M⁻¹ s⁻¹. Further, the koff in test [2] (pH 7.5, read-out: kopening) stood at 9.4 s⁻¹.
In the case of `NC(=O)CC[C@H](N)C(=O)O` [glutamine], the Kd in test [3] turned out to be 1270 ± 140 nM. In addition, the kon is 3.7e+07 M⁻¹ s⁻¹ in test [3] (read-out: kon, binding from Level I) and 3.8e+07 M⁻¹ s⁻¹ in test [3] (read-out: kon, binding from Level II (so in the source)). In addition, the “koff (opening rate constant)” value in test [3] (−100 mV, intercept at zero) is on record as 39.7 s^1.

B1: AlkB-Fe^++ (protein, UniProt P05050 1-216, looked up)
Alpha-ketoglutarate-dependent …: MLDLFADAEPWQEPLAAGAVILRRFAFNAAEQLIRDINDVASQSPFRQMVTPGGYTMSVAMTNCGHLGWTTHRQGYLYSPIDPQTNKPWPAMPQSFHNLCQRAATAAGYPDFQPDACLINRYAPGAKLSLHQDKDEPDLRAPIVSVSLGLPAIFQFGGLKRNDPLKRLLLEHGDVVVWGGESRLFYHGIQPLKAGFHPLTIDCRYNLTFRQAGKKE
modifications: Fe2+ bound
As for B1, the “AlkB-Fe++ blockades not showing ligand-induced transitions” value in test [1] is “About 30%”. Also, the “time trapped inside the nanopore” value in test [4] was “several minutes”.

The values are drawn from patent publication US11169138B2, “Nanopores with internal protein adaptors” (priority 2015, dated 2021).
